Tested on: SF1
Test: Immunoblots of SF1 in WT MEFs treated with TORC1 inhibitors
Type: cell-based
Details: mouse embryonic fibroblasts; rapamycin 20 nM, Torin 250 nM
Procedure: To control for the SF1 antibody specificity, WT MEF transfected with non-targeting control siRNAs (siCt) or SF1 siRNA for 72 h and grown in 10% FBS, are shown on the right side of the blot. Biological duplicates are shown except for the siRNA treated lanes.
Immunoblotting was performed as in FIG. 14, Panel G. Biological duplicates are shown except for the siRNA treated lanes.
The inverted splicing reporter WBM535 was made by injecting modified minigene reporter plasmids into N2 worms. The plasmids were made by deleting the (+2) frameshift in the EGFP minigene and inserting a (+2) frameshift into the mCherry minigene. Worms were grown and maintained on standard nematode growth media (NGM) seeded with E. coli (OP50-1). E. coli bacteria were cultured overnight in LB at 37° C., after which 100 μl of liquid culture was seeded on plates to grow for 2 days at room temperature. Lifespans—All lifespans were conducted at 20° C. unless otherwise noted in figure legend. Lifespans were performed as described in Burkewitz et al. (93). Graphpad Prism 6 was used to plot survival curves and determine median lifespan. Survival curves were compared and p values calculated using the log-rank (Mantel-Cox) analysis method. […] RNA interference—All RNAi constructs came from the Ahringer RNAi library, except hrp-2 and hrpf-1 RNAi constructs, which originated from the Vidal RNAi library. RNAi experiments were carried out using E. coli HT115 bacteria on standard NGM plates containing 100 μg/ml Carbenicillin. […] NGM plus Carbenicillin plates were seeded 48 hours before use. Respective dsRNA expressing HT115 bacteria were induced by adding 100 μl IPTG (100 mM) one hour before introducing worms to the plate. RNAi was induced for all experiments from egg hatch. Solid plate-based dietary restriction assays—Solid sDR assays were performed as described by Ching et al. (79). Plates were prepared in advance and stored at 4° C.

| SMILES | total SF1 levels | SF1 gel shifts indicative of altered phosphorylation |
| --- | --- | --- |
| CO[C@H]1C[C@@H]2CC[C@@H](C)[C@@](O)(O2)C(=O)C(=O)N2CCCC[C@H]2C(=O)O[C@H]([C@H](C)C[C@@H]2CC[C@@H](O)[C@H](OC)C2)CC(=O)[C@H](C)/C=C(\C)[C@@H](O)[C@@H](OC)C(=O)[C@H](C)C[C@H](C)/C=C/C=C/C=C/1C [rapamycin] | no effect | – |
| CCC(=O)N1CCN(c2ccc(-n3c(=O)ccc4cnc5ccc(-c6cnc7ccccc7c6)cc5c43)cc2C(F)(F)F)CC1 [torin, Torin1] | no effect | nor did were SF1 gel shifts indicative of altered phosphorylation seen |
